Measured values from article PMC4105567, “Aurora Kinases as Druggable Targets in Pediatric Leukemia: Heterogeneity in Target Modulation Activities and Cytotoxicity by Diverse Novel Therapeutic Agents” (PLoS ONE, 2014).

Legend:
KOPN8 B-ALL cell line = assay: Cytotoxicity assay, KOPN8; assay type: cell-based, human; conditions: Homo sapiens, KOPN-8, 96 h, four days in culture, Alamar blue assay or automated microscopy, ± SD, three experiments
Description: (§1) Cell lines were cultured in Opti-MEM medium (Gibco, Life Technologies Corporation, Burlington, Ontario) supplemented with 10% heat inactivated fetal bovine serum (FBS) (Gibco), 100 units/ml penicillin and 100 units/ml streptomycin (Gibco) and 0.05 mM 2-mercaptoethanol (Sigma-Aldrich, Oakville, Ontario) in T25 flasks (Nalge Nunc, Rochester, New York) or T75 flasks (Corning Incorporated, Corning, New York). All cell cultures were maintained at 37°C in a humidified incubator with 5% CO2.
(§2) For cytotoxicity profiling of Aurora kinase inhibitors against leukemia cell lines, inhibitors or vehicle control (DMSO, Sigma-Aldrich) were diluted in 100 µl of Opti-MEM per well in 96 well plates (Grenier Bio-One, Monroe, North Carolina) in triplicate at final concentrations ranging from 1×10^−6 to 10 µM. 1×10^4 cells per well were seeded and plates were incubated for 4 days. Following incubation for 4 days, cell survival was quantified by Alamar blue assay (Invitrogen) or automated inverted microscopy using the Celigo Cell Cytometer (Cyntellect, San Diego, California). […] During this period of incubation, the absorbance at 570–620 nm was measured (Opsys MR Plate Reader, Dynex Technologies, Chantilly, Virginia) at various time points, depending on the cell line or sample. Percent survival was calculated by comparing the absorbance ratio of the test well to the control well multiplied by 100%, as indicated in the following formula: […]
(§3) For automated inverted microscopy, the number of cells in each well was determined using the direct cell counting application as described previously. Briefly, following adjustment of image acquisition settings for bright-field imaging, the wells containing cells and appropriate dilutions of inhibitors were individually scanned. Based on these images, analysis parameters, including intensity threshold and cell diameter, were modified for optimal inclusion of viable cells in treated and control wells. These parameters were applied for subsequent replicates involving the same leukemia cell line or sample. The percent survival was then calculated as a ratio of the number of cells in treated wells to the number of cells in control wells multiplied by 100%. Given that Aurora kinase inhibitors interfere with cytokinesis, cells that are committed to death may still contain enlarging but intact cytoplasmic content before the eventual loss of cytoplasmic membrane integrity. The accuracy of Alamar blue assay may be, in theory, affected by the timing of these events.

[1] = test system: Patient #4 infant leukemia primary cells; assay: Cytotoxicity assay, primary sample Patient #4; assay type: cell-based, human; conditions: Homo sapiens, 96 h, four days in culture, Alamar blue assay or automated microscopy, one complete study
Description: (§4) These include B-ALL (Patient #1), relapsed AML (Patient #2), AML/CML (Patient #3), infant ALL (Patient #4), and initial ALL presenting with secondary AML (Patient #5). […] The diluted sample was then layered on a Ficoll-Paque (GE Healthcare, Piscataway, New Jersey) gradient at a 1∶2 ratio of Ficoll to diluted sample. Samples were then centrifuged 1800 rpm for 20 minutes at room temperature. The buffy coat was removed with a pipette and transferred to a new centrifuge tube and diluted with PBS. After an additional centrifugation at 1200 rpm, the white blood cell pellet was washed with PBS and centrifuged one last time. Cells were re-suspended in Opti-MEM and viable cells were counted using trypan blue (Invitrogen, Life Technologies Corporation, Burlington, Ontario) exclusion on a haemocytometer. An identical protocol was followed for the isolation of white blood cells, referred to as “normal lymphocytes” in the following paragraphs, from healthy volunteers. Samples grown in culture for up to six months were cultured in Opti-MEM medium supplemented with 10% heat inactivated FBS, penicillin/streptomycin and 2-mercaptoethanol.
as §2, §3

HL-60 APML cell line = assay: Cytotoxicity assay, HL-60; assay type: cell-based, human; conditions: Homo sapiens, 96 h; APML cell line HL-60; four days in culture; Alamar blue assay or automated microscopy; ± SD, three experiments
Description: as §1, §2, §3

[2] = test system: Patient #2 relapsed AML primary leukemia cells; assay: Cytotoxicity assay, primary sample Patient #2; assay type: cell-based, human; conditions: Homo sapiens, 96 h, four days in culture, Alamar blue assay or automated microscopy, one complete study
Description: as §4, §2, §3

Aurora-A = test system: Aurora-A; design: method as in earlier work; conditions: read-out: Targets (IC50 Value): Aurora-A; cited from earlier work
TIB-202 AML cell line = assay: Cytotoxicity assay, TIB-202; assay type: cell-based, human; conditions: Homo sapiens, 96 h; AML cell line TIB-202; four days in culture; Alamar blue assay or automated microscopy; ± SD, three experiments
Description: as §1, §2, §3

Molt-3 T-ALL cell line = assay: Cytotoxicity assay, Molt-3; assay type: cell-based, human; conditions: Homo sapiens, 96 h; T-ALL cell line Molt-3; four days in culture; Alamar blue assay or automated microscopy; ± SD, three experiments
Description: as §1, §2, §3

Bone Marrow Stroma = assay: Cytotoxicity assay, bone marrow stroma; assay type: cell-based, human; conditions: Homo sapiens, 96 h; bone marrow stroma (control for non-leukemia cytotoxicity); four days in culture; ± SD, three experiments
Description: as §2, §3

SEM B-ALL cell line = assay: Cytotoxicity assay, SEM; assay type: cell-based; conditions: Homo sapiens, 96 h, four days in culture, Alamar blue assay or automated microscopy, ± SD, three experiments
Description: as §1, §2, §3

Normal Lymphocytes = assay: Cytotoxicity assay, normal lymphocytes; assay type: cell-based, human; conditions: Homo sapiens, Lymphocyte, 96 h; normal lymphocytes (control for non-leukemia cytotoxicity); four days in culture; ± SD, three experiments
Description: as §4, §2, §3

Molm13 AML cell line = assay: Cytotoxicity assay, Molm13; assay type: cell-based, human; conditions: Homo sapiens, MOLM-13, 96 h, four days in culture, Alamar blue assay or automated microscopy, ± SD, three experiments
Description: as §1, §2, §3

UOCB1 B-ALL cell line = assay: Cytotoxicity assay, UOCB1; assay type: cell-based, human; conditions: Homo sapiens, UoC-B1, 96 h, four days in culture, Alamar blue assay or automated microscopy, ± SD, three experiments
Description: as §1, §2, §3

[3] = test system: Patient #5 ALL/AML primary leukemia cells; assay: Cytotoxicity assay, primary sample Patient #5; assay type: cell-based, human; conditions: Homo sapiens, 96 h; primary sample; four days in culture; Alamar blue assay or automated microscopy; one complete study; read-out: IC50, Patient #5 ALL/AML
Description: as §4, §2, §3

[4] = test system: Patient #1 B-ALL primary leukemia cells; assay: Cytotoxicity assay, primary sample Patient #1; assay type: cell-based, human; conditions: Homo sapiens, 96 h, four days in culture, Alamar blue assay or automated microscopy, one complete study
Description: as §4, §2, §3

[5] = test system: Patient #3 AML/CML primary leukemia cells; assay: Cytotoxicity assay, primary sample Patient #3; assay type: cell-based, human; conditions: Homo sapiens, 96 h, four days in culture, Alamar blue assay or automated microscopy, one complete study
Description: as §4, §2, §3

C1 B-ALL cell line = assay: Cytotoxicity assay, C1; assay type: cell-based, human; conditions: Homo sapiens, 96 h, four days in culture, Alamar blue assay or automated microscopy, ± SD, three experiments
Description: as §1, §2, §3

Aurora-C = conditions: read-out: Targets (IC50 Value): Aurora-C; literature values; ref [10],[40],[44]–[64] as listed per inhibitor in Table 1; cited from earlier work
HL-60 RA APML cell line = assay: Cytotoxicity assay, HL-60 RA; assay type: cell-based, human; conditions: Homo sapiens, 96 h; APML cell line HL-60 RA; four days in culture; Alamar blue assay or automated microscopy; ± SD, three experiments
Description: as §1, §2, §3

MV4-11 AML cell line = assay: Cytotoxicity assay, MV4-11; assay type: cell-based, human; conditions: Homo sapiens, 96 h; AML cell line MV4-11; four days in culture; Alamar blue assay or automated microscopy; ± SD, three experiments
Description: as §1, §2, §3

Nalm6 B-ALL cell line = assay: Cytotoxicity assay, Nalm6; assay type: cell-based, human; conditions: Homo sapiens, NALM-6, 96 h, four days in culture, Alamar blue assay or automated microscopy, ± SD, three experiments
Description: as §1, §2, §3

B1 B-ALL cell line = assay: Cytotoxicity assay, B1; assay type: cell-based, human; conditions: Homo sapiens, 96 h, four days in culture, Alamar blue assay or automated microscopy, ± SD, three experiments
Description: as §1, §2, §3

[6] = test system: normal cells versus leukemia cell lines; assay: Comparison of cytotoxicity IC50 values, normal cells versus leukemia cell lines; assay type: cell-based, human; conditions: normal lymphocytes and bone marrow stroma versus leukemia cell lines of Table 2
Description: as §2, §3

NB4 APML cell line = assay: Cytotoxicity assay, NB4; assay type: cell-based, human; conditions: Homo sapiens, 96 h, four days in culture, Alamar blue assay or automated microscopy, ± SD, three experiments
Description: as §1, §2, §3

Cc1cc(Nc2cc(N3CCN(C)CC3)nc(Sc3ccc(NC(=O)C4CC4)cc3)n2)[nH]n1 [VX-680]
IC50 (KOPN8 B-ALL cell line): 3 ± 0.5 nM
IC50 [1]: 1000 nM
IC50 (HL-60 APML cell line): 60 ± 5 nM
IC50 [2]: 100 nM
IC50 (TIB-202 AML cell line): 7 ± 3 nM
IC50 (Molt-3 T-ALL cell line): 0.9 nM
IC50 (Bone Marrow Stroma): > 10000 nM
IC50 (SEM B-ALL cell line): 60 ± 20 nM
IC50 (Normal Lymphocytes): 5000 ± 900 nM
IC50 (Molm13 AML cell line): 4 ± 2 nM
IC50 (UOCB1 B-ALL cell line): < 0.001 nM
IC50 [3]: 0.5 nM
IC50 [4]: 0.09 nM
IC50 [5]: 2000 nM
IC50 (C1 B-ALL cell line): 0.4 nM
IC50 (HL-60 RA APML cell line): 1 ± 0.5 nM
IC50 (MV4-11 AML cell line): 2 ± 1 nM
IC50 (Nalm6 B-ALL cell line): 0.2 nM
IC50 (B1 B-ALL cell line): 5 ± 3 nM
IC50 values for the normal cells compared with IC50 values for the leukemia cell lines (potential therapeutic window) [6]: higher than the IC50 values for the leukemia cell lines
IC50 (NB4 APML cell line): 7 ± 2 nM
